Measured values reported in patent US12594268B2, “Methods of treating Fabry disease in patients having a mutation in the GLA gene” (Amicus Therapeutics, Inc., priority 2018, dated 2026).
Where a chain is given by its changes, count along the chain named.

What was measured:
Assay type in all cases: cell-based
α-Gal A mutant form Y88S = target: T1, α-Gal A mutant form Y88S (Homo sapiens, UniProt P06280, Y88S); test: α-Gal A activity in lysates of transfected HEK-293 cells, Y88S; conditions: Y-88S
T1 construct: expressed in transfected cells; host or cells: HEK-293
T1 sequence (P06280 32-429 Y88S): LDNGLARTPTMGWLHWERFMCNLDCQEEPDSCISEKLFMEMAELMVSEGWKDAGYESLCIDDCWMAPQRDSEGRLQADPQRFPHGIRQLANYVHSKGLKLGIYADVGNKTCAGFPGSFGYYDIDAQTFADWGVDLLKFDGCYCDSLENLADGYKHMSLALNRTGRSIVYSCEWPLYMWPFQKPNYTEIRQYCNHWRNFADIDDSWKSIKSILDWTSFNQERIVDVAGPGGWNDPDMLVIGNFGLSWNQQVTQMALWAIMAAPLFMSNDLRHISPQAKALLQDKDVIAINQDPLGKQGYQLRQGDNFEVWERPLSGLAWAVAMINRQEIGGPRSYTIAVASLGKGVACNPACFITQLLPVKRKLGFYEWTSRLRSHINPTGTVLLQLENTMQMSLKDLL
Description: (§1) Baseline and 10 μM migalastat α-Gal A activity: Differences in the α-Gal A activity between lysates incubated in the absence and presence of 10 μM migalastat were determined using a one-tailed, Mann Whitney U test; an increase at 10 μM migalastat with a p<0.05 was considered significant.
(§2) 10 μM migalastat α-Gal A activity (% WT)=(α-Gal A activity in mutant transfected cell lysates incubated with 10 μM migalastat÷α-Gal A activity in wild-type transfected cell lysates without migalastat)*100.
(§3) Absolute increase (% WT)=is the 10 μM migalastat α-Gal A activity (% WT) minus the baseline α-Gal A activity (% WT).
(§4) Relative increase is the 10 μM migalastat α-Gal A activity in mutant transfected cell lysates÷baseline α-Gal A activity in mutant transfected cell lysates incubated without migalastat.

[1] = target: T2, α-Gal A mutant form R392T (Homo sapiens, UniProt P06280, R392T); test: α-Gal A activity in lysates of transfected HEK-293 cells, R392T
T2 construct: expressed in transfected cells; host or cells: HEK-293
T2 sequence (P06280 32-429 R392T): T1 sequence (P06280 32-429 Y88S) with S57Y, R361T
Description: as §1, §2, §3, §4

[2] = target: T3, α-Gal A mutant form N408Y (Homo sapiens, UniProt P06280, N408Y); test: α-Gal A activity in lysates of transfected HEK-293 cells, N408Y
T3 construct: expressed in transfected cells; host or cells: HEK-293
T3 sequence (P06280 32-429 N408Y): T1 sequence (P06280 32-429 Y88S) with S57Y, N377Y
Description: as §1, §2, §3, §4

[3] = target: T4, α-Gal A mutant form V339A (Homo sapiens, UniProt P06280, V339A); test: α-Gal A activity in lysates of transfected HEK-293 cells, V339A
T4 construct: expressed in transfected cells; host or cells: HEK-293
T4 sequence (P06280 32-429 V339A): T1 sequence (P06280 32-429 Y88S) with S57Y, V308A
Description: as §1, §2, §3, §4

[4] = target: T5, α-Gal A mutant form W204L (Homo sapiens, UniProt P06280, W204L); test: α-Gal A activity in lysates of transfected HEK-293 cells, W204L
T5 construct: expressed in transfected cells; host or cells: HEK-293
T5 sequence (P06280 32-429 W204L): T1 sequence (P06280 32-429 Y88S) with S57Y, W173L
Description: as §1, §2, §3, §4

[5] = 10 μM migalastat minus baseline
[6] = 10 μM migalastat ÷ baseline activity
[7] = HEK-293 lysates, 10 nM migalastat as printed, 5 days, mean ± SEM
[8] = HEK-293 lysates, 10 μM migalastat, 5 days, mean ± SEM

Absolute increase (% WT) (α-Gal A mutant form Y88S; [5]): 10.3 % WT
Relative increase (α-Gal A mutant form Y88S; [6]): 3.67
10 nM migalastat α-Gal A activity (α-Gal A mutant form Y88S; [7]): 5542 ± 376 nmol/mg/h
10 μM migalastat α-Gal A activity (% WT) (α-Gal A mutant form Y88S; [8]): 14.1 ± 1.3 % WT
Absolute increase (% WT) [1, 5]: 21.3 % WT
Relative increase [1, 6]: 1.22
10 nM migalastat α-Gal A activity [1, 7]: 36679 ± 1896 nmol/mg/h
10 μM migalastat α-Gal A activity (% WT) [1, 8]: 125.9 ± 6.2 % WT
Absolute increase (% WT) [2, 5]: 44.6 % WT
Relative increase [2, 6]: 2.09
10 μM migalastat α-Gal A activity [2, 8]: 23273 ± 2965 nmol/mg/h
10 μM migalastat α-Gal A activity (% WT) [2, 8]: 85.5 ± 7.7 % WT
Absolute increase (% WT) [3, 5]: 16.8 % WT
Relative increase [3, 6]: 1.33
10 μM migalastat α-Gal A activity [3, 8]: 25174 ± 2895 nmol/mg/h
10 μM migalastat α-Gal A activity (% WT) [3, 8]: 65.6 ± 4.2 % WT
Absolute increase (% WT) [4, 5]: 47.4 % WT
Relative increase [4, 6]: 2.02
10 μM migalastat α-Gal A activity [4, 8]: 32649 ± 3037 nmol/mg/h
10 μM migalastat α-Gal A activity (% WT) [4, 8]: 84.3 ± 5.9 % WT
Structure (SMILES): OC[C@H]1NC[C@H](O)[C@@H](O)[C@H]1O [migalastat, (2R,3S,4R,5S)-2-(hydroxymethyl) piperdine-3,4,5-triol]
